ChEMBL document CHEMBL2010697, “Fragment based drug discovery: practical implementation based on ¹⁹F NMR spectroscopy” (J Med Chem, 2012)

How the values were obtained:
[1] = biological target: T1, Beta-secretase 1 (Homo sapiens, UniProt P56817); assay: Binding affinity to BACE1 by surface plasmon resonance method
[2] = biological target: T1, Beta-secretase 1; assay: Binding affinity to BACE1 by NMR-based differential chemical shift perturbation method

T1 sequence (P56817 whole entry): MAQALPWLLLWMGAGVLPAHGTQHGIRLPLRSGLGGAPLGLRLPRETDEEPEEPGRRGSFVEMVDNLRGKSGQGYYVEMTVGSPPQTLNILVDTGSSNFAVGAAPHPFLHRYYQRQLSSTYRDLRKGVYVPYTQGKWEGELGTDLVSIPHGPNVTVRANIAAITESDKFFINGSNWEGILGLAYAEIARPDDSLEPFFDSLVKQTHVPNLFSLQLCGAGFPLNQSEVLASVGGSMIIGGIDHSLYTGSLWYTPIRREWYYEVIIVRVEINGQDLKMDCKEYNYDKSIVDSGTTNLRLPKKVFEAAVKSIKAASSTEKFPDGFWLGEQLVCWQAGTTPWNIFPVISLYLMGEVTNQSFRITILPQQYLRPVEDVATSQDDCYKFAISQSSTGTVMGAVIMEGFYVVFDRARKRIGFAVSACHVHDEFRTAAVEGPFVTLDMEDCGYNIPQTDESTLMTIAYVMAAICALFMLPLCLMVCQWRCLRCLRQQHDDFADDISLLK

Compound | Kd [1] | Kd [2]
Cc1ccc2nc(N)ccc2c1 | 1600 µM | –
Fc1cccc(C2NCCc3sccc32)c1 (racemic) | > 2000 µM | > 1000 µM
Nc1ccc2cc(-c3ccccc3F)ccc2n1 | 39 µM | –
Nc1cc(C(F)(F)F)c2ccccc2n1 | 2900 µM | –
Nc1ccc2cc(C(F)(F)F)ccc2n1 | 3900 µM | –
Fc1cccc(Cl)c1CN1CCNCC1 | > 2000 µM | > 1000 µM
NC1=Nc2ccccc2Sc2cccc(F)c21 | 325 µM | 400 µM
Nc1ccc2cc(-c3ccccc3C(F)(F)F)ccc2n1 | 200 µM | 200 µM
Cc1cc(N)nc2ccccc12 | 1300 µM | –
Nc1ccc2cc(F)ccc2n1 | 1280 µM | 1000 µM
N=C(N)SCc1c(F)cccc1Cl | 300 µM | 350 µM
O=C(NC1CCCCC1)C(F)(F)F | – | > 1000 µM
